The values below come from ChEMBL document CHEMBL3352057, “Novel fluorinated pyrrolo[1,2-a]pyrazine-2,6-dione derivatives: synthesis and anticonvulsant evaluation in animal models of epilepsy” (Bioorg Med Chem, 2014).

Calls of active or inactive are those of the source. The rule behind the calls is not given here.

Data set [1] relates to Mus musculus. In words: Anticonvulsant activity in albino CF1 mouse assessed as protection against 32 mA current-induced seizures at 100 mg/kg, ip measured after 0.25 hr. Type of data set: functional, organism-based. Also noted: dose 100 mg/kg.
In data set [2] the test system is Rattus norvegicus. Kind of data set: Anticonvulsant activity in pilocarpine-induced status prevention Sprague-Dawley rat model assessed as weight change 24 hrs post-first stage 3 seizure of protected rat at 300 mg/kg, ip measured after 0.5 hr. Type of data set: functional. The settings on record: route intraperitoneal.
Data set [3] has as its system Mus musculus. In words: Neurotoxicity in 32 mA current-induced seizure albino CF1 mouse model at 100 mg/kg, ip measured after 1 hr. The settings on record: in vivo. Also noted: dose 100 mg/kg, route intraperitoneal. In kind it is toxicity, organism-based.
The subject of data set [4] is Mus musculus. In words: Anticonvulsant activity in albino CF1 mouse assessed as protection against maximal electroshock-induced seizures at 100 mg/kg, ip measured after 0.5 hr. Also noted: dose 100 mg/kg. In kind it is functional, organism-based. On the technique in general: Protection in the maximal electroshock model is a classic sign of anticonvulsant action.
The test system of data set [5] is Mus musculus. In words: Neurotoxicity in albino CF1 mouse at 100 mg/kg, ip measured after 0.25 hr. Type of data set: toxicity, organism-based. The settings on record: in vivo. Also noted: dose 100 mg/kg, route intraperitoneal.
For data set [6], the system named is Mus musculus. In words: Anticonvulsant activity in albino CF1 mouse assessed as protection against subcutaneous metrazol-induced seizures at 100 mg/kg, ip measured after 0.5 hr. In kind it is functional, organism-based. Also noted: dose 100 mg/kg.
For data set [7], the system named is Mus musculus. Kind of data set: Anticonvulsant activity in albino CF1 mouse assessed as protection against subcutaneous metrazol-induced seizures at 100 mg/kg, ip measured after 4 hrs. In kind it is functional, organism-based. Also noted: dose 100 mg/kg.
Data set [8] deals with Mus musculus. Kind of data set: Neurotoxicity in albino CF1 mouse at 100 mg/kg, ip measured after 0.5 hr. In kind it is toxicity, organism-based. Also noted: dose 100 mg/kg, route intraperitoneal. To be noted: in vivo.
Data set [9] deals with Rattus norvegicus. In words: Anticonvulsant activity in pilocarpine-induced status prevention Sprague-Dawley rat model assessed as weight change 24 hrs post-first stage 3 seizure of non-protected rat at 300 mg/kg, ip measured after 0.5 hr. In kind it is functional. The settings on record: route intraperitoneal.
Data set [10] relates to Mus musculus. Kind of data set: Anticonvulsant activity in albino CF1 mouse assessed as protection against 32 mA current-induced seizures at 100 mg/kg, ip measured after 2 hrs. Type of data set: functional, organism-based. Also noted: dose 100 mg/kg.
The test system of data set [11] is Mus musculus. In words: Anticonvulsant activity in albino CF1 mouse assessed as protection against maximal electroshock-induced seizures at 100 mg/kg, ip measured after 4 hrs. Also noted: dose 100 mg/kg. In kind it is functional, organism-based.
Data set [12] concerns Mus musculus. Kind of data set: Anticonvulsant activity in albino CF1 mouse assessed as protection against 32 mA current-induced seizures at 100 mg/kg, ip measured after 0.5 hr. Type of data set: functional, organism-based. Also noted: dose 100 mg/kg.
Data set [13] relates to Mus musculus. Kind of data set: Neurotoxicity in 32 mA current-induced seizure albino CF1 mouse model at 100 mg/kg, ip measured after 0.5 hr. Also noted: dose 100 mg/kg, route intraperitoneal. Type of data set: toxicity, organism-based. To be noted: in vivo.
For data set [14], the system named is Mus musculus. In words: Anticonvulsant activity in albino CF1 mouse assessed as protection against maximal electroshock-induced seizures at 100 mg/kg, ip measured after 0.25 hr. Type of data set: functional, organism-based. Also noted: dose 100 mg/kg.
Data set [15] has as its system Mus musculus. Kind of data set: Neurotoxicity in albino CF1 mouse at 100 mg/kg, ip measured after 1 hr. In kind it is toxicity, organism-based. Also noted: dose 100 mg/kg, route intraperitoneal. The settings on record: in vivo.
Data set [16] has as its system Mus musculus. In words: Neurotoxicity in albino CF1 mouse at 100 mg/kg, ip measured after 4 hrs. In kind it is toxicity, organism-based. Also noted: dose 100 mg/kg, route intraperitoneal. The settings on record: in vivo.
The subject of data set [17] is Mus musculus. In words: Neurotoxicity in 32 mA current-induced seizure albino CF1 mouse model at 100 mg/kg, ip measured after 0.25 hr. Type of data set: toxicity, organism-based. Also noted: dose 100 mg/kg, route intraperitoneal. To be noted: in vivo.
Data set [18] deals with Mus musculus. Kind of data set: Anticonvulsant activity in albino CF1 mouse assessed as protection against 32 mA current-induced seizures at 100 mg/kg, ip measured after 1 hr. In kind it is functional, organism-based. Also noted: dose 100 mg/kg.
For data set [19], the system named is Mus musculus. In words: Anticonvulsant activity in albino CF1 mouse assessed as protection against subcutaneous metrazol-induced seizures at 100 mg/kg, ip measured after 1 hr. Also noted: dose 100 mg/kg. In kind it is functional, organism-based.
The test system of data set [20] is Mus musculus. In words: Neurotoxicity in 32 mA current-induced seizure albino CF1 mouse model at 100 mg/kg, ip measured after 4 hrs. The settings on record: in vivo. Also noted: dose 100 mg/kg, route intraperitoneal. In kind it is toxicity, organism-based.
The test system of data set [21] is Mus musculus. In words: Anticonvulsant activity in albino CF1 mouse assessed as protection against subcutaneous metrazol-induced seizures at 100 mg/kg, ip measured after 0.25 hr. Type of data set: functional, organism-based. Also noted: dose 100 mg/kg.
In data set [22] the test system is Mus musculus. Kind of data set: Anticonvulsant activity in albino CF1 mouse assessed as protection against maximal electroshock-induced seizures at 100 mg/kg, ip measured after 1 hr. Type of data set: functional, organism-based. Also noted: dose 100 mg/kg.
Data set [23] has as its system Mus musculus. Kind of data set: Anticonvulsant activity in albino CF1 mouse assessed as protection against 32 mA current-induced seizures at 100 mg/kg, ip measured after 4 hrs. Also noted: dose 100 mg/kg. Type of data set: functional, organism-based.
For data set [24], the system named is Mus musculus. Kind of data set: Neurotoxicity in 32 mA current-induced seizure albino CF1 mouse model at 100 mg/kg, ip measured after 2 hrs. Type of data set: toxicity, organism-based. Also noted: dose 100 mg/kg, route intraperitoneal. To be noted: in vivo.
Data set [25] relates to Rattus norvegicus. Kind of data set: Anticonvulsant activity in ip dosed Sprague-Dawley rat assessed as protection against maximal electroshock-induced seizures. Type of data set: functional.
Data set [26] relates to Mus musculus. Kind of data set: Anticonvulsant activity in ip dosed corneal kindled albino CF1 mouse seizure model assessed as time to peak effect. In kind it is functional.
The test system of data set [27] is Mus musculus. Kind of data set: Anticonvulsant activity in ip dosed corneal kindled albino CF1 mouse seizure model. Type of data set: functional.
Data set [28] has as its system Rattus norvegicus. Kind of data set: Anticonvulsant activity in ip dosed Sprague-Dawley rat assessed as protection against subcutaneous metrazol-induced seizures measured at 0.25 hr post dose. In kind it is functional.
The nature of data set [29]: Neurotoxicity in ip dosed Sprague-Dawley rat measured at 0.25 hr post dose. Type of data set: toxicity, organism-based. The settings on record: in vivo.
A short description of data set [30]: Protective index, ratio of TD50 for neurotoxicity in ip dosed Sprague-Dawley rat to ED50 for anticonvulsant activity in ip dosed MES Sprague-Dawley rat model. The settings on record: in vivo, read-out: Ratio TD50/ED50. In kind it is toxicity, organism-based.
The subject of data set [31] is Rattus norvegicus. Kind of data set: Anticonvulsant activity in ip dosed Sprague-Dawley rat assessed as protection against subcutaneous metrazol-induced seizures. Type of data set: functional.
Data set [32] deals with Rattus norvegicus. In words: Anticonvulsant activity in ip dosed Sprague-Dawley rat assessed as protection against maximal electroshock-induced seizures measured as time to peak effect. Type of data set: functional.

For `O=C1NC(=O)[C@@H]2CCCN2[C@H]1c1ccc(F)cc1`, the outcome in data set [1], in data set [14], in data set [21] and in data set [22] was Active. In addition, the Activity is listed as -12 g in data set [2]; “Non-toxic” in data set [3]; “Non-toxic” in data set [5]; “Non-toxic” in data set [8]; -30 g in data set [9]; “Non-toxic” in data set [13]. Also, the Activity entry in data set [15], in data set [16], in [17], in [20] and in data set [24] was “Non-toxic” each time. For the same compound, the result in data set [4], in data set [6], in [7], in data set [10], in [11] and in data set [12] was inactive. The result in data set [18], in data set [19] and in [23] was inactive.

Usually ED50 stands for the dose at which the effect has come halfway, by size or by number of responders. The term TD50 denotes the dose at which the toxic effect under study appears in half of the subjects. Low values mean harm at a small dose, high ones harm only at a large dose. In the case of `CCCC(CCC)C(=O)[O-].[Na+]` [VALPROATE SODIUM], the ED50 in data set [25] was 890 µmol/kg; in data set [27] it was 948 µmol/kg; in data set [28], 1420 µmol/kg; in data set [31], 1420 µmol/kg. For the same compound, the Time in data set [26] and in data set [32] was 0.5 h throughout. This compound also had a TD50 at 0.25 h in [29] of 1910 µmol/kg. The selectivity ratio in data set [30] came out at 2.1.
